Literature values as cited in patent US11419828B2, “Hair care terpinen 4-ol (T4O) composition for the treatment of demodex mites on scalp” (priority 2021, dated 2022).

Columns and labels:
Demodex mites = details: 75% alcohol, 10% povidone-iodine, erythromycin
[1] = at levels up to 75%
Demodex = details: 38% concentration of terpinen-4-ol, over a period of 4 weeks

| Compound | Demodex mites' resistance to antiseptic agent (Demodex mites) | also measured |
| --- | --- | --- |
| CCO [alcohol] | resistant |  |
| povidone-iodine | resistant |  |
| CC[C@H]1OC(=O)[C@H](C)[C@@H](O[C@H]2C[C@@](C)(OC)[C@@H](O)[C@H](C)O2)[C@H](C)[C@@H](O[C@@H]2O[C@H](C)C[C@H](N(C)C)[C@H]2O)[C@](C)(O)C[C@@H](C)C(=O)[C@H](C)[C@@H](O)[C@]1(C)O [erythromycin] | resistant |  |
| OCCCO [Propanediol, Propanediol 1,3] |  | potential to irritate or sensitize skin [1]: low potential to irritate or sensitize skin |
| CC1=CCC(O)(C(C)C)CC1 (centres unmarked) [terpinen-4-ol, Terpinen-4-ol] |  | reduction of Demodex (Demodex): reduce Demodex effectively |
